Experiment: mn = molality of the nth substance listed, in mol/kg
Conditions: 100 kPa, Liquid; for electrical conductivity: Alternating current cell with electrodes; for viscosity: Falling or rolling sphere viscometry; for mass density: Vibrating tube method

CCC(=O)OCCN1CCNCC1 [2-(piperazin-1-yl)ethyl propionate] + O
Conditions | electrical conductivity, 318.15 K [S/m] | electrical conductivity, 323.15 K [S/m] | mass density, 318.15 K [kg/m3] | mass density, 323.15 K [kg/m3] | viscosity, 318.15 K [mPa·s] | viscosity, 323.15 K [mPa·s]
m1 = 0.05 | – | 0.426 | 992.04 | 989.83 | 0.632 | 0.587
m1 = 0.0999 | – | 0.772 | 993.83 | 991.62 | 0.658 | 0.61
m1 = 0.1996 | – | 1.36 | 997.43 | 995.19 | 0.7 | 0.645
m1 = 0.3 | – | 1.85 | 1001.16 | 998.9 | 0.737 | 0.678
m1 = 0.3997 | – | 2.27 | 1004.61 | 1002.44 | 0.785 | 0.722
m1 = 0.5001 | – | 2.61 | 1008.39 | 1006.07 | 0.844 | 0.773
m1 = 0.5992 | – | 2.92 | 1012.05 | 1009.7 | 0.902 | 0.825
m1 = 0.6993 | – | 3.14 | 1015.67 | 1013.4 | 0.969 | 0.883
m1 = 0.7997 | – | 3.34 | 1019.49 | 1017.08 | 1.048 | 0.953
m1 = 0.9003 | – | 3.48 | 1023 | 1020.5 | 1.133 | 1.028
m1 = 0.9988 | – | 3.59 | 1026.75 | 1024.22 | 1.222 | 1.106
m1 = 1.199 | – | 3.69 | 1034.11 | 1031.52 | 1.452 | 1.307
m1 = 1.402 | – | 3.64 | 1041.51 | 1038.79 | 1.729 | 1.549
m1 = 1.6 | – | 3.52 | 1048.62 | 1045.84 | 2.122 | 1.895
m1 = 1.802 | – | 3.28 | 1055.75 | 1052.89 | 2.566 | 2.274
m1 = 1.998 | 2.7 | 3 | 1062.48 | 1059.54 | 3.183 | 2.797
m1 = 2.2 | 2.4 | 2.69 | 1069.07 | 1066.05 | 4.044 | 3.527
m1 = 2.402 | 2.11 | 2.38 | 1075.55 | 1072.45 | 5.196 | 4.525
m1 = 2.6 | 1.77 | 2.01 | 1081.13 | 1077.96 | 7.174 | 6.112
m1 = 2.798 | 1.411 | 1.628 | 1086.33 | 1083.11 | 9.493 | 8.069
m1 = 3.002 | 1.17 | 1.341 | 1091.09 | 1087.78 | 12.49 | 10.49
